Laboratory results published in patent US20250161306A1, “UBIQUITIN-SPECIFIC-PROCESSING PROTEASE 1 (USP1) INHIBITORS FOR THE TREATMENT OF SOLID TUMORS” (KSQ Therapeutics, Inc., priority 2022, published 2025).

Tests used:
[1] = Mouse pharmacokinetic study, single oral dose, plasma by LC-MS/MS; format: in vivo, female NOD/SCID mice; details: for AUClast / Cmax / T1/2 / Tmax: 300 mg/kg single oral dose, plasma, 300 mg/kg
Protocol: Mouse pharmacokinetic (PK) studies were conducted using Crystalline Form A of 6-(4-cyclopropyl-6-methoxypyrimidin-5-yl)-1-(4-(1-isopropyl-4-(trifluoromethyl)-1H-imidazol-2-yl)benzyl)-1H-pyrazolo[3,4-d]pyrimidine, as disclosed herein and Crystalline Form 2 of a gentisic acid co-crystal of 6-(4-cyclopropyl-6-methoxypyrimidin-5-yl)-1-(4-(1-isopropyl-4-(trifluoromethyl)-1H-imidazol-2-yl)benzyl)-1H-pyrazolo[3,4-d]pyrimidine, as disclosed herein.
The PK studies consisted of single dose oral exposure studies, which were conducted in female NOD/SCID mice (approximately 6 to 8 weeks, and 20-30 g at the time of study) using a compound dose of 300 mg/kg and a dosing volume of 10 mL/kg. The mice were fasted overnight prior to dosing. Animals had free access to food and water post-dosing.
Blood was sampled serially from the dorsal metatarsal vein at pre-dose, 0.25, 0.5, 1, 2, 4, 8, 24, 48 (crystalline Form 2 only), and 72 hours (crystalline Form 2 only) post PO dosing. Approximately 0.03 mL blood was collected at each time point and centrifuged at 4000 G for 5 minutes at 4° C. to provide plasma. The plasma samples were then stored in a freezer at −75±15° C. prior to LC-MS/MS analysis.
Concentrations of each compound in the plasma samples were then analyzed using an LC-MS/MS method. WinNonlin (Phoenix™, version 6.1) or other similar software was used for PK calculations. The following PK parameters were calculated, whenever possible from the plasma concentration versus time data: Cmax, Tmax, T1/2, AUCinf, and AUClast. The PK data were described using descriptive statistics such as mean with standard deviation.

[2] = Distribution in mouse brain and plasma after repeated oral dosing; format: in vivo, female NOD SCID mice; details: 100 or 300 mg/kg oral for 28 days
Protocol: Female NOD SCID mice of an age between 6-8 weeks and a body weight range of 18-22 g were purchased from Beijing Anikeeper Biotech Co, Ltd. Animals were habituated to the environment for at least 7 days prior to study initiation. Mice were dosed with Crystalline Form 2 at either 100 mg/kg or 300 mg/kg dose levels via oral gavage for 28 days. After 24 hours following 27 doses of compound, three mice were euthanized via CO2. After four hours following 28 doses of compound, three mice were euthanized via CO2. At each time point the whole brain was collected. In addition, approximately 0.03 mL of blood was collected at each time point and centrifuged at 4000G for 5 minutes at 4° C. to provide plasma. Samples were then stored in a freezer at −75±15° C. prior to LC-MS/MS analysis. Concentrations of compound in brain homogenates (ng/g) and plasma (ng/ml) were then analyzed using an LC-MS/MS method. The PK data were described using descriptive statistics such as mean with standard deviation.

[3] = Distribution in rat brain and plasma after single oral dose; format: in vivo, Sprague Dawley rats; details: 100 mg/kg single oral dose; for AUC0-∞: brain
Protocol: Male and female Sprague Dawley rats were purchased from Beijing Anikeeper Biotech Co, Ltd. Animals were habituated to the environment prior to study initiation. Rats were dosed with single dose of 100 mg/kg crystalline Form 2 via oral gavage. The rats were fasted overnight prior to dosing. Animals had access to food from 2 hours post dose and free access to water throughout the study. Approximately 0.2 mL of blood was sampled via jugular vein at each time point and centrifuged at 4000G for 5 minutes at 4° C. to provide plasma. Samples were then stored in a freezer at −75±15° C. prior to LC-MS/MS analysis. Whole brain was collected after hemoperfusion and snap frozen on dry ice prior to storage at −75±15° C. Prior to LC-MS/MS analysis whole brains were weighed and homogenized with water by tissue weight (g) to water volume (ml) ratio 1:3 before analysis. Actual concentration is the measured value multiplied by the dilution factor. The PK data were described using descriptive statistics such as mean with standard deviation.

AUClast ([1]; Mean) | Cmax ([1]; Mean) | T1/2 ([1]; Mean) | Tmax ([1]; Mean) | AUClast ([1]; Mouse 7) | Cmax ([1]; Mouse 7) | AUClast ([1]; Mouse 8) | Cmax ([1]; Mouse 8) | T1/2 ([1]; Mouse 8) | Tmax ([1]; Mouse 8) | AUClast ([1]; Mouse 9) | Cmax ([1]; Mouse 9) | T1/2 ([1]; Mouse 9) | Tmax ([1]; Mouse 9) | mouse oral exposure levels compared to crystalline Form A (freebase) ([1]; about 300 mg/kg) | accumulation of the drug in the brain after repeated dosing [2] | drug level in the brain tissue [2] | drug level in the brain tissue ([3]; male and female rats) | AUC0-∞ ([3]; Female rats) | AUC0-∞ ([3]; Male rats) | SMILES
752.45 µg·h/mL | 28900 ng/mL | 4.17 h | 10.7 h | 827.348 µg·h/mL | 28800 ng/mL | 835.713 µg·h/mL | 28900 ng/mL | 4.22 h | 12.0 h | 594.288 µg·h/mL | 29000 ng/mL | 4.27 h | 12.0 h | higher exposure levels | no apparent accumulation | measurable drug level | measurable drug level | 120933 ng·h/g | 60596 ng·h/g | COc1ncnc(C2CC2)c1-c1ncc2cnn(Cc3ccc(-c4nc(C(F)(F)F)cn4C(C)C)cc3)c2n1 [Crystalline Form 2, 6-(4-cyclopropyl-6-methoxypyrimidin-5-yl)-1-(4-(1-isopropyl-4-(trifluoromethyl)-1H-imidazol-2-yl)benzyl)-1H-pyrazolo[3,4-d]pyrimidine]
60.663 µg·h/mL | 3697 ng/mL | 12.7 h | 5.33 h | 72.653 µg·h/mL | 4450 ng/mL | 40.678 µg·h/mL | 2890 ng/mL |  | 4.00 h | 68.658 µg·h/mL | 3750 ng/mL | 18.6 h | 4.00 h |  |  |  |  |  |  | COc1ncnc(C2CC2)c1-c1ncc2cnn(Cc3ccc(-c4nc(C(F)(F)F)cn4C(C)C)cc3)c2n1 [Crystalline Form A, 6-(4-cyclopropyl-6-methoxypyrimidin-5-yl)-1-(4-(1-isopropyl-4-(trifluoromethyl)-1H-imidazol-2-yl)benzyl)-1H-pyrazolo[3,4-d]pyrimidine]
